Experiment [1] addresses T1, CDK7 (Homo sapiens, UniProt P50613).
T1 construct: purchased Life Technologies (Adapta kinase assay service)
In words: Adapta kinase assay (Life Technologies) against CDK7, co-factors cyclin H and MNAT1. The format is biochemical. Conditions: read-out: CDK7 Inhibition. On the procedure:
Compounds of the invention were assayed for activity against CDK7 at Life Technologies™ (Grand Island, N.Y.) using their commercially available Adapta® kinase assay services. […] Details of the assay, including the substrate used for CDK7 kinase, are available on the Life Technologies web site (http://www.lifetechnologies.com/us/en/homellife-science/drug-discovery/target-and-lead-identification-and-validation/kinasebiology/kinase-activity-assays.html).
The co-factors used for the assay were cyclin H and MNAT1.

Experiment [2] relates to Jurkat. Briefly: Inhibition of cell proliferation, CellTiter-Glo, 72 hour. The format is cell-based. Conditions: Homo sapiens, Jurkat, 72 h, Blood cancer cell line; 72 hour; read-out: Inhibition of Proliferation of Jurkat Cells. On the procedure: The following cancer cell lines were tested with the media conditions indicated: […]

Structures are written as SMILES. Counter-ions that a name gives are not always drawn.

T1 sequence (P50613 whole entry): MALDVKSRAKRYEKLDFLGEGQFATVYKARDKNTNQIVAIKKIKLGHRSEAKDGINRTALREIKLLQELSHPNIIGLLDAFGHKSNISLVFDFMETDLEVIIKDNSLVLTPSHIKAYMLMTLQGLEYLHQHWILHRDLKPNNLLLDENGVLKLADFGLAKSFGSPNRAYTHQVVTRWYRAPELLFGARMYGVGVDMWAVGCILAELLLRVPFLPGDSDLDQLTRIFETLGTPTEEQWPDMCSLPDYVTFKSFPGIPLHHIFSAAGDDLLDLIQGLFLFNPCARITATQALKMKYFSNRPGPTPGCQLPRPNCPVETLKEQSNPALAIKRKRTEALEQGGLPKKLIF
T1 sequence (P51946 whole entry partner): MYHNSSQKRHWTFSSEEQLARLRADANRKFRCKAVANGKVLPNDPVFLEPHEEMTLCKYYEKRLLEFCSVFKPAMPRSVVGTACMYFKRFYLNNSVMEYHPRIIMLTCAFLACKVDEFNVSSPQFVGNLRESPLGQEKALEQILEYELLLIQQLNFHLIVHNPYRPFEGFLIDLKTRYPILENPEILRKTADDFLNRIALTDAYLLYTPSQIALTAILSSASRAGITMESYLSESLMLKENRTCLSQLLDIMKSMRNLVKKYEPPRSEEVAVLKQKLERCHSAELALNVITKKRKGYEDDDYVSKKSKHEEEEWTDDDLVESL
T1 sequence (P51948 whole entry partner): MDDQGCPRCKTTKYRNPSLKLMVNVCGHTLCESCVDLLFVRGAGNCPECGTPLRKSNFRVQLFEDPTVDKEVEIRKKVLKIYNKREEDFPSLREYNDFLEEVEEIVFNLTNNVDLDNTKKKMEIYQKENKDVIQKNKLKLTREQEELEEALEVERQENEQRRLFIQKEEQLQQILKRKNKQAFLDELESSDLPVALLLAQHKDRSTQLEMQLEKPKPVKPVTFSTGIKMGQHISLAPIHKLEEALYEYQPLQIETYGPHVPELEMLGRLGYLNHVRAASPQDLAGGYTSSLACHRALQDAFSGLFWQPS

In the case of `CN(C)C/C=C/C(=O)Nc1ccc(C(=O)N[C@@H]2CC[C@H](Nc3ncc(Cl)c(-c4c[nH]c5ccccc45)n3)C2)cc1` (racemic) [Compound 120, N-((1R,3S)-3-((5-chloro-4-(1H-indol-3-yl)pyrimidin-2-yl)amino)cyclopentyl)-4-((E)-4-(dimethylamino)but-2-enamido)benzamide and N-((1S,3R)-3-((5-chloro-4-(1H-indol-3-yl)pyrimidin-2-yl)amino)cyclopentyl)-4-((E)-4-(dimethylamino)but-2-enamido)benzamide], the figures for the IC50 in experiment [1] and in experiment [2] were 100 to 1000 nM and less than 500 nM, respectively.

Consider `C=CC(=O)Nc1ccc(NC(=O)[C@H]2CNCC(Nc3ncc(Cl)c(-c4c[nH]c5ccccc45)n3)C2)cc1` (mixture of isomers) [Compound 154, (+/−trans)-N-(4-acrylamidophenyl)-5-((5-chloro-4-(1H-indol-3-yl)pyrimidin-2-yl)amino)piperidine-3-carboxamide], for which the IC50 in experiment [1] is less than 100 nM; in experiment [2], less than 500 nM.

In the case of `CN(C)C/C=C/C(=O)Nc1ccc(C(=O)N2CCC(Nc3ncc(Cl)c(-c4c[nH]c5ccccc45)n3)CC2)c(F)c1` [Compound 115, (E)-N-(4-(4-(5-chloro-4-(1H-indol-3-yl)pyrimidin-2-ylamino)piperidine-1-carbonyl)-3-fluorophenyl)-4-(dimethylamino)but-2-enamide], the IC50 is less than 100 nM in experiment [1] and less than 500 nM in experiment [2].

Consider `CN(C)C/C=C/C(=O)Nc1ccc(S(=O)(=O)N2CC[C@@H](Nc3ncc(Cl)c(-c4c[nH]c5ccccc45)n3)C2)cc1` [Compound 105, (E)-N-(4-((R)-3-(5-chloro-4-(1H-indol-3-yl)pyrimidin-2-ylamino)pyrrolidin-1-ylsulfonyl)phenyl)-4-(dimethylamino)but-2-enamide], for which the results for the IC50 in experiment [1] and in experiment [2] were less than 100 nM and 500 to 5000 nM, respectively.

On to `CN(C)C/C=C/C(=O)Nc1ccc(C(=O)N2CCC(Nc3ncc(Cl)c(-c4cc[nH]n4)n3)CC2)cc1` [Compound 117, (E)-N-(4-(4-((5-chloro-4-(1H-pyrazol-3-yl)pyrimidin-2-yl)amino)piperidine-1-carbonyl)phenyl)-4-(dimethylamino)but-2-enamide], for which the IC50 in experiment [1] was more than 1000 nM; in experiment [2], more than 5000 nM.

For the molecule `Cc1cc(C(=O)N2CCC(Nc3ncc(Cl)c(-c4c[nH]c5ccccc45)n3)CC2)ccc1NC(=O)/C=C/CN(C)C` [Compound 113, (E)-N-(4-(4-(5-chloro-4-(1H-indol-3-yl)pyrimidin-2-ylamino)piperidine-1-carbonyl)-2-methylphenyl)-4-(dimethylamino)but-2-enamide], the IC50 in experiment [1] was less than 100 nM; in experiment [2], less than 500 nM.

Turning to `N#Cc1cnc(N[C@@H]2CCN(C(=O)c3ccc(NC(=O)/C=C/CN4CCOCC4)cc3)C2)nc1-c1c[nH]c2ccccc12` [Compound 107, (E)-N-(4-((R)-3-(5-cyano-4-(1H-indol-3-yl)pyrimidin-2-ylamino)pyrrolidine-1-carbonyl)phenyl)-4-morpholinobut-2-enamide], the IC50 was less than 100 nM in experiment [1] and less than 500 nM in experiment [2].

For `N#Cc1cnc(N[C@@H]2CCN(C(=O)c3ccc(NC(=O)/C=C/CN4CCCC4)cc3)C2)nc1-c1c[nH]c2ccccc12` [Compound 108, (E)-N-(4-((R)-3-(5-cyano-4-(1H-indol-3-yl)pyrimidin-2-ylamino)pyrrolidine-1-carbonyl)phenyl)-4-(pyrrolidin-1-yl)but-2-enamide], the figures for the IC50 in experiment [1] and in experiment [2] were less than 100 nM and less than 500 nM, respectively.

With `Cc1nc(C)c(-c2nc(N[C@H]3CC[C@@H](NC(=O)c4ccc(NC(=O)/C=C/CN(C)C)cc4)C3)ncc2Cl)s1` (racemic) [Compound 128, N-((1R,3S)-3-((5-chloro-4-(2,4-dimethylthiazol-5-yl)pyrimidin-2-yl)amino)cyclopentyl)-4-((E)-4-(dimethylamino)but-2-enamido)benzamide and N-((1S,3R)-3-((5-chloro-4-(2,4-dimethylthiazol-5-yl)pyrimidin-2-yl)amino)cyclopentyl)-4-((E)-4-(dimethylamino)but-2-enamido)benzamide], the IC50 was 100 to 1000 nM in experiment [1] and 500 to 5000 nM in experiment [2].

With `NCCC(=O)Nc1cccc(Nc2ncc(Cl)c(-c3c[nH]c4ccccc34)n2)c1` [Compound 306, 3-amino-N-(3-(5-chloro-4-(1H-indol-3-yl)pyrimidin-2-ylamino)phenyl) propanamide.TFA], the figures for the IC50 in experiment [1] and in experiment [2] were less than 100 nM and 500 to 5000 nM, respectively.

Regarding `CN(C/C=C/C(=O)Nc1ccc(CN2CCC(Nc3ncc(Cl)c(-c4c[nH]c5ccccc45)n3)CC2)cc1)CC(=O)O` [Compound 148, 2-[[(E)-4-[4-[[4-[[5-chloro-4-(1H-indol-3-yl)pyrimidin-2-yl]amino]-1-piperidyl]methyl]anilino]-4-oxo-but-2-enyl]-methyl-amino]acetic acid], the figures for the IC50 in experiment [1] and in experiment [2] were less than 100 nM and 500 to 5000 nM, respectively.

Regarding `CN(C)C/C=C/C(=O)Nc1ccc(C(=O)N2CCC(Nc3ncc(Cl)c(-c4cccnc4)n3)CC2)cc1` [Compound 118, (E)-N-(4-(4-((5-chloro-4-(pyridin-3-yl)pyrimidin-2-yl)amino)piperidine-1-carbonyl)phenyl)-4-(dimethylamino)but-2-enamide], the IC50 lay within 100 to 1000 nM in experiment [1] and 500 to 5000 nM in experiment [2].

As to `CN(C)C/C=C/C(=O)Nc1ccc(C(=O)N2CCC(Nc3ncc(Cl)c(-c4c[nH]c5ccccc45)n3)CC2)cc1F` [Compound 112, (E)-N-(4-(4-(5-chloro-4-(1H-indol-3-yl)pyrimidin-2-ylamino)piperidine-1-carbonyl)-2-fluorophenyl)-4-(dimethylamino)but-2-enamide], the IC50 in experiment [1] is less than 100 nM; in experiment [2] it was less than 500 nM.

`Nc1ccc(C(=O)N2CC[C@H](Nc3ncc(Cl)c(-c4c[nH]c5ccccc45)n3)C2)cc1` [Compound 24, (4-aminophenyl)((S)-3-(5-chloro-4-(1H-indol-3-yl)pyrimidin-2-ylamino)pyrrolidin-1-yl)methanone]: the IC50 was 100 to 1000 nM in experiment [1] and more than 5000 nM in experiment [2].

Take `COc1ccc(Cn2c(-c3ccc(NC(=O)/C=C/CN(C)C)cc3)nc3cc(Nc4ncc(Cl)c(-c5c[nH]c6ccccc56)n4)ccc32)cc1` [Compound 133, (E)-N-(4-(5-(5-chloro-4-(1H-indol-3-yl)pyrimidin-2-ylamino)-1-(4-methoxybenzyl)-1H-benzo[d]imidazol-2-yl)phenyl)-4-(dimethylamino)but-2-enamide]: the IC50 in experiment [1] was in the range of 100 to 1000 nM; in experiment [2], 500 to 5000 nM.

As to `Cc1[nH]c2ccccc2c1-c1nc(NC2CCN(C(=O)c3ccc(NC(=O)/C=C/CN(C)C)cc3)CC2)ncc1Cl` [Compound 125, (E)-N-(4-(4-((5-chloro-4-(2-methyl-1H-indol-3-yl)pyrimidin-2-yl)amino)piperidine-1-carbonyl)phenyl)-4-(dimethylamino)but-2-enamide], the figures for the IC50 in experiment [1] and in experiment [2] were less than 100 nM and less than 500 nM, respectively.

`CN(C/C=C/C(=O)Nc1ccc(CN2CCC(Nc3ncc(Cl)c(-c4c[nH]c5ccccc45)n3)CC2)cc1)CC(N)=O` [Compound 146, (E)-4-((2-amino-2-oxoethyl)(methyl)amino)-N-(4-((4-((5-chloro-4-(1H-indol-3-yl)pyrimidin-2-yl)amino)piperidin-1-yl)methyl)phenyl)but-2-enamide]: the IC50 was less than 100 nM in experiment [1] and more than 5000 nM in experiment [2].

`Cc1cc(N)ccc1C(=O)N1CCC(Nc2ncc(Cl)c(-c3c[nH]c4ccccc34)n2)CC1` [Compound 63, (4-amino-2-methylphenyl)(4-(5-chloro-4-(1H-indol-3-yl)pyrimidin-2-ylamino)piperidin-1-yl)methanone]: the IC50 in experiment [1] was 100 to 1000 nM; in experiment [2], more than 5000 nM.

As for `Cc1noc(C)c1-c1nc(N[C@H]2CC[C@@H](NC(=O)c3ccc(NC(=O)/C=C/CN(C)C)cc3)C2)ncc1Cl` (racemic) [Compound 122, N-((1R,3S)-3-((5-chloro-4-(3,5-dimethylisoxazol-4-yl)pyrimidin-2-yl)amino)cyclopentyl)-4-((E)-4-(dimethylamino)but-2-enamido)benzamide and N-((1S,3R)-3-((5-chloro-4-(3,5-dimethylisoxazol-4-yl)pyrimidin-2-yl)amino)cyclopentyl)-4-((E)-4-(dimethylamino)but-2-enamido)benzamide], the IC50 in experiment [1] was 100 to 1000 nM; in experiment [2] it was less than 500 nM.

On to `Cc1nc(C)c(-c2nc(NC3CCN(C(=O)c4ccc(NC(=O)/C=C/CN(C)C)cc4)CC3)ncc2Cl)s1` [Compound 119, (E)-N-(4-(4-((5-chloro-4-(2,4-dimethylthiazol-5-yl)pyrimidin-2-yl)amino)piperidine-1-carbonyl)phenyl)-4-(dimethylamino)but-2-enamide], for which the IC50 was in the range of 100 to 1000 nM in experiment [1] and 500 to 5000 nM in experiment [2].

Regarding `CN(C)CC=CC(=O)Nc1ccc(C(=O)NC2CNCC(Nc3ncc(Cl)c(-c4c[nH]c5ccccc45)n3)C2)cc1` (racemic) [Compound 149, N-((+/−cis)-5-((5-chloro-4-(1H-indol-3-yl)pyrimidin-2-yl)amino)piperidin-3-yl)-4-((E)-4-(dimethylamino)but-2-enamido)benzamide], the IC50 in experiment [1] was less than 100 nM; in experiment [2], 500 to 5000 nM.

`Nc1ccc(C(=O)N2[C@@H]3CC[C@H]2C[C@@H](Nc2ncc(Cl)c(-c4c[nH]c5ccccc45)n2)C3)cc1` [Compound 302, (4-aminophenyl)((1R,3R,5S)-3-(5-chloro-4-(1H-indol-3-yl)pyrimidin-2-ylamino)-8-aza-bicyclo[3.2.1]octan-8-yl)methanone]: the results for the IC50 in experiment [1] and in experiment [2] were more than 1000 nM and 500 to 5000 nM, respectively.

On to `CN(C)C/C=C/C(=O)Nc1cccc(CN2CCC(Nc3ncc(Cl)c(-c4c[nH]c5ccccc45)n3)CC2)c1` [Compound 141, (E)-N-[3-[[4-[[5-chloro-4-(1H-indol-3-yl)pyrimidin-2-yl]amino]-1-piperidyl]methyl]phenyl]-4-(dimethylamino)but-2-enamide], for which the IC50 in experiment [1] was less than 100 nM; in experiment [2] it was less than 500 nM.

For the origin of these results see patent publication US20190292167A1, “HETEROAROMATIC COMPOUNDS USEFUL FOR THE TREATMENT OF PROLIFERATIVE DISEASES” (Syros Pharmaceuticals, Inc., priority 2013, published 2019).
